Laboratory results: a melting point compilation (Tetko et al.; mined from patent text by program, amines drawn as free bases though some values may be those of a salt)

Row | Compound | melting point [°C]
1 | COC(=O)c1cc(O)ccc1NC(=O)c1ccc(Cl)cc1Cl | 181 to 182
2 | C=CCC1=C(Cl)C(=O)c2ccccc2C1=O | 69 to 70
3 | CCc1ccc2c(C=O)c3ccccc3c(C=O)c2c1 | 99 to 100
4 | CN(C)S(=O)(=O)Oc1cc(-n2c(=O)cc(C(F)(F)F)n(C)c2=O)c(F)cc1Cl | 118 to 120
5 | O=C(c1ccccc1)c1cc(-c2ccccc2)c(OS(=O)(=O)c2ccc(C(=O)O)c(O)c2)c(-c2ccccc2)c1 | 217
6 | CC1=C(C(=O)OCCN(C)Cc2ccccc2)C(c2cccc([N+](=O)[O-])c2)C(P(=O)(OC(C)C)OC(C)C)=C(C)N1 (stereo not drawn) | 113 to 115
7 | CN(C)C(=S)SC(C[N+](=O)[O-])c1cccs1 (stereo not drawn) | 88 to 90
8 | CS(=O)(=O)c1ccnc(Oc2ccccc2)n1 | 86 to 87
9 | COc1nc(Cl)nc2c1c(C#N)cn2C1OC(CO)C(O)C1O (stereo not drawn) | 194 to 195
10 | Cc1ccc(-c2ccc(O)cc2)c(-c2ccc(OCCN3CCCC3)cc2)n1 | 159 to 161
11 | Cc1nn(C)c(C)c1C(=O)NC/C=C\COc1cc(CN2CCCCC2)ccn1 | 75 to 77
12 | O=C(O)CCC(=NO)c1ccc(-c2ccc(Br)cc2)cc1 | 175 to 176
13 | CSCC(C)(CN)C(=O)N(C)c1nnc(-c2cncc(F)c2)s1 (stereo not drawn) | 154 to 157
14 | O=C(OC1c2ccccc2C(=O)N1c1ccc2ccc(Cl)nc2n1)N1CCN(C=S)CC1 (stereo not drawn) | 295
15 | CN(c1ncccc1[N+](=O)[O-])C1CCN(Cc2ccccc2)CC1 | 92 to 95
16 | COC[C@@H]1CCCN1S(=O)(=O)c1ccc2c(c1)C(=O)C1=NCCCN12 | 138 to 141
17 | CCOC(=O)c1cc(=O)c2ccc(OCCCCl)cc2o1 | 107 to 108
18 | c1ccc2c(c1)nc(-c1ccc3c(c1)OCO3)n2Cc1ccc2c(c1)OCO2 | 173 to 174
19 | C=CC(c1ccccc1)c1c(C)c(OC(C)=O)c(C)c(C)c1O (stereo not drawn) | 136 to 138
20 | Cc1c(C(F)(C(F)(F)F)C(F)(F)F)c(-c2ccc(S(N)(=O)=O)cc2)c2n1CCC2 | 200
21 | Cc1nc(N)nc(N)c1-c1c(Cl)cccc1Cl | 250
22 | CN1C(=O)Nc2cc(Cl)c(Cl)cc2C1(O)C(=O)NC(N)=S (stereo not drawn) | 225 to 228
23 | CC(=O)N1CCC(n2cc(C3=C(c4cn(C)c5ccccc45)C(=O)NC3=O)c3ccccc32)CC1 | > 293
24 | O=C1Nc2ccc(Cl)cc2C1(O)c1ccccc1C(F)(F)F (stereo not drawn) | 205 to 208
25 | CCc1nc2c(N)nc3ccc(OCc4ccccc4)cc3c2n1CCCCNS(C)(=O)=O | 186 to 191

Row | Compound | melting point [°C]
26 | COC(=O)c1cccc(C(=O)NC2N=C(c3ccccc3F)c3ccccc3N(CC(=O)N3CC4CCC(CC4)C3)C2=O)c1 (racemic) | 166 to 177
27 | CCn1c2ccccc2c2c3c(nc(C)c21)CC(C)(C)CC3=O | 174 to 177
28 | COc1ccc(S(=O)(=O)N2CCc3cccc(-c4ccccn4)c32)cc1 | 195 to 197
29 | COC(=O)c1ccc(C(C)(C)NC(C)=O)cc1 | 165 to 167
30 | c1ccc(C(CC2=NCCN2)c2ccccc2)cc1 | 173 to 175
31 | Cc1cccc(C(=O)n2c3c(c4ccccc42)CC(C(=O)O)CC3)c1 (stereo not drawn) | 180 to 182
32 | Oc1ccc(CN2CCOCC2)c2cccnc12 | 130
33 | CCOc1nn(Cc2ccc(OCc3csc(-c4ccccc4)n3)cc2)cc1CCC(=O)O | 114 to 115
34 | Cc1cccc(C)c1N(CC(=O)N(C)C)C(=O)CCl | 74 to 76
35 | S=C1Cc2c([nH]c3ccc(Br)cc23)-c2ccccc2N1 | > 330
36 | CC(C)NCC(O)c1cc(F)cc(C#N)c1 (stereo not drawn) | 85.5 to 86.5
37 | COC(=O)[C@H]1Cc2ccc(C)cc2C(=O)[C@H](C)S1 (relative stereo) | 99 to 100
38 | O=[N+]([O-])c1cnn(-c2c(Cl)cc(C(F)(F)F)cc2Cl)c1 | 91 to 97
39 | C#CC(C)(C)OC(=O)Nc1ccc(-c2ncn(-c3ccc(OC(F)(F)F)cc3)n2)cc1 | 164 to 165
40 | COC(=O)C(NS(=O)(=O)c1ccc(-c2ccc(NC(=O)c3oc4cccc(C(C)OC)c4c3C)cc2)cc1)C(C)C (stereo not drawn) | 186 to 188
41 | O=C(Nc1ccc(F)cc1F)c1cccc(Cl)n1 | 86 to 87
42 | COC(=O)NCc1nc(C(C)C)c(Sc2cc(Cl)cc(Cl)c2)n1C | 138 to 139
43 | Nc1ccc2nc3n(c2c1)CC(C(=O)OCc1ccccc1)NC3 (stereo not drawn) | 115 to 118
44 | Cc1c(Cc2ccccc2)c2c(c(C)c1NC(=O)CC(C)(C)C)CC(C)(C)O2 | 129 to 130
45 | COC(=O)Cc1cn(C2CCCCC2)nc1O | 135 to 136
46 | Cc1cc(Nc2ccc(F)cc2)nc(Nc2ccc(S(=O)(=O)N(C)C3CCN(Cc4ccoc4)CC3)cc2)n1 | 156
47 | CCc1nc2c3c(c(C(=O)N(C)C)c(-c4ccccc4)c2n1C)CCCO3 | 195 to 197
48 | O=C1NC(=O)C(c2ccccc2Cl)C1c1cc2c3c(ccn3CCC2)c1 (stereo not drawn) | 209 to 212
49 | N#CCc1ccc(C(=O)C2CC2)cc1 | 86 to 87
50 | CN1C(=O)Nc2ccccc2C12NC(=O)NC2=O (stereo not drawn) | > 280

Row | Compound | melting point [°C]
51 | C[C@@H](N(CCOCc1ccccc1)C(=O)c1ccc(OCC(F)(F)C(F)F)cc1)[C@](O)(Cn1cncn1)c1ccc(Cl)cc1Cl (relative stereo) | 51 to 62
52 | N#Cc1cccc2c1ccc1nc(O)c(O)nc12 | > 300
53 | O=C1C(Br)CCN1c1ccc(OCc2ccccc2)cc1 (racemic) | 125 to 126
54 | NNc1cc2c(nn1)CCN(C(=O)c1ccc(Br)cc1)C2 | 192 to 195
55 | CC(=O)c1nc2cc(Cl)c(OCC(F)(F)F)cc2cc1OCc1ccccc1 | 110 to 112
56 | CC(=O)OC1CSC(Oc2cncc(-c3ccc(C#N)c(Cl)c3)c2)C(OC(C)=O)C1OC(C)=O (stereo not drawn) | 148 to 150
57 | CCOC(=O)C1C=Nc2c(ccc(F)c2F)C1=O (stereo not drawn) | 270
58 | COCCOCCCOc1ccc(/C=C/C(=O)O)c(Oc2ncc(C(F)(F)F)cc2Cl)c1 | 103 to 104
59 | COc1ccc(S(=O)(=O)Nc2ccccc2NC(=O)c2ccncc2)cc1 | 162 to 163
60 | COc1cc(Nc2c(C#N)cnc3cc(-c4ccc(CN(C)C)cc4)sc23)c(Cl)cc1Cl | 224 to 225
61 | COc1ccc2c(c1)CN(C(C)=O)N=C2Cc1c(Cl)cncc1Cl | 186 to 188
62 | Cn1cnc(COc2nn3c(-c4ccccc4)nnc3cc2-c2ccccc2)c1 | 199 to 202
63 | O=[N+]([O-])c1cc(F)cc(I)c1O | 40
64 | CC(=O)NNc1ccc(Cl)c(Cl)c1 | 179 to 182
65 | Nc1ccc(NC(=O)NC(=O)c2c(F)cccc2F)cc1 | 240
66 | CCCCS(=O)(=O)Nc1ccccc1OCc1ccc2ccccc2n1 | 93 to 94
67 | CC(=O)N[C@@H](C)COC1CCN(c2nc3ccc(OCC4CC4)cc3o2)CC1 | 120
68 | CCCCCCCCCCCCCC(=O)NCCOCCn1c(CCOC)nc2c(N)nc3ccccc3c21 | 85 to 87
69 | O=C(Nc1ccc(-n2nc(C(F)(F)F)cc2C2CC2)c(F)c1)c1cccc(F)c1F | 132 to 135
70 | CCCn1c(=O)[nH]c(=O)c2[nH]c(/C=C/c3cc(OC)c(OC)c(OC)c3)nc21 | 286 to 291
71 | C[C@@H]1CCC[C@H](C)N1CCNc1ccnc2cc(Cl)ccc12 | 138 to 139
72 | CC(=C(Cl)Cl)c1cc(N)c(S(N)(=O)=O)cc1S(N)(=O)=O | 199 to 202
73 | CCCN1CC=C(c2ccc(Cl)cc2)C(C(=O)OCc2ccccc2)C1 (stereo not drawn) | 75 to 76.5
74 | O=C(C=CCl)c1cc(F)c(Cl)cc1Cl | 65 to 70
75 | CC(=O)c1ccc2c(c1)C(=O)C1(CC1)S2 | 128 to 129

Row | Compound | melting point [°C]
76 | C[Si](C)(C)C#Cc1ccc(Oc2ccc(C(=O)C(=O)c3cccc(C(=O)C(=O)c4ccc(Oc5ccc(C#C[Si](C)(C)C)cc5)cc4)c3)cc2)cc1 | 110 to 111
77 | O=[N+]([O-])c1ccc2oc(-c3sccc3CN3CCOCC3)nc2c1 | 143 to 145
78 | CCOC(=O)c1c(C)nc(S)c([N+](=O)[O-])c1NCCCN(C)C | 131 to 132
79 | COC1CCN(c2c(Cl)cc3c4c(cccc24)C(=O)N(O)C3=O)C1 (stereo not drawn) | 136 to 142
80 | CCOCCS(=O)(=O)N1CC[C@@H](C(=O)N(C)Cc2cc(C(F)(F)F)cc(C(F)(F)F)c2)[C@H](c2ccc(F)cc2C)C1 (relative stereo) | 151 to 153
81 | O=C(O)CCCCCCCCCCCCC(=O)ON1C(=O)CCC1=O | 116 to 118
82 | CCCc1nc2c(N)nc3ccccc3c2n1CCCCC(N)=O | 202 to 203
83 | CCCCn1c(=O)cc(O)c2ccccc21 | 211 to 213
84 | Nc1ccc(O)c(CSCCO)c1 | 121
85 | N[C@H](C1CCCCC1)C(O)(c1ccc2ccccc2c1)c1ccc2ccccc2c1 | 205 to 206
86 | CCCCc1ccc(-c2c(C)[nH]c(=O)n2C)cc1 | 180
87 | Cc1ccccc1NC(=O)Nc1ccc(CC(=O)NC(CC(C)C)C2=NOC(CCC(=O)O)(CCC(=O)O)C2)cc1 (stereo not drawn) | 173 to 175
88 | COc1ccc(OC)c(C(=S)N2CCOCC2)c1 | 127
89 | Cc1ccc(N2CCC(CCOc3ccc(-c4nc(C(C)C)no4)cc3)CC2)nn1 | 135
90 | CCCCNC(=O)NC1Cc2ccc(C3=NNC(=O)CC3)cc2C1 (stereo not drawn) | 206 to 207
91 | Cc1oc(-c2ccccc2)nc1CCOc1ccc(CC(Nc2ccccc2C(=O)c2ccccc2C(=O)O)C(=O)O)cc1 (stereo not drawn) | 107 to 110
92 | O=C(O)C1=CSC2C(=Cc3cc4c(s3)CCOC4)C(=O)N12 (stereo not drawn) | > 250
93 | FC(F)(F)c1ccc(-c2cc(C3CC3)cc(Cl)n2)cc1 | 89 to 93
94 | Oc1ccc([C@H]2CC[C@@H](NCCOc3ccccc3)CC2)cc1 | 149 to 154
95 | CCC1(C)OC(=O)C(c2ccccc2)C(=O)O1 (stereo not drawn) | 135 to 136
96 | COc1ccc([C@@H]2O[C@@](O[Si](C)(C)C)(C(F)(F)F)[C@H](Cc3ccccc3)N2C(=O)OCc2ccccc2)cc1 | 41 to 42
97 | N#CCC(O)(c1ccc(Cl)cc1)c1ccc(-c2ccc(Br)cc2)cc1 (stereo not drawn) | 160 to 161
98 | CCOC(=O)N1CCC(c2nc(-c3ccc(-c4ccccc4)cc3)c[nH]2)CC1 | 71 to 72
